Measurements reported in patent publication US10758513B2, “Modulators of mitochondrial protein import” (THE REGENTS OF THE UNIVERSITY OF CALIFORNIA, priority 2011, dated 2020).

Assays:
succinate dehydrogenase = target: T1, succinate dehydrogenase (Saccharomyces cerevisiae, UniProt Q00711); assay: Succinate dehydrogenase activity in WT mitochondria (oxygen electrode); type: biochemical, yeast; settings: 25 or 50 μM MitoBloCK-6; 20 mM malonate control
T1 construct: endogenous in cells; host or cells: mitochondria isolated from WT yeast
T1 sequence (Q00711 29-640): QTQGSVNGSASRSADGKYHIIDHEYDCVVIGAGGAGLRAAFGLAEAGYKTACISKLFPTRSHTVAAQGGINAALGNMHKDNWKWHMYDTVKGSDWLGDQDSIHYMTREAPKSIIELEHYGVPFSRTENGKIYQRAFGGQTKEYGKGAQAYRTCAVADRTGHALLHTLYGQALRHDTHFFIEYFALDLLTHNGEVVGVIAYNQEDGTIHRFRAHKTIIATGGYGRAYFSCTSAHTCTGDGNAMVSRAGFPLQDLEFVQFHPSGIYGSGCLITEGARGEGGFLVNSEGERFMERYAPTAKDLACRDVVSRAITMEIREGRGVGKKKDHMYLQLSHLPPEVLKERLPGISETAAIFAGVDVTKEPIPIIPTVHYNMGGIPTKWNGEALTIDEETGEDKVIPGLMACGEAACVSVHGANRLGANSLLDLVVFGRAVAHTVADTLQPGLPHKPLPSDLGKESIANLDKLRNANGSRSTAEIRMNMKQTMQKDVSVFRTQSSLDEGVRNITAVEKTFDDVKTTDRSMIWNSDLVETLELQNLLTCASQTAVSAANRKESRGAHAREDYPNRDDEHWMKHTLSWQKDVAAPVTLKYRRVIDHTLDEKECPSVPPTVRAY
T1 sequence (P21801 21-266 partner): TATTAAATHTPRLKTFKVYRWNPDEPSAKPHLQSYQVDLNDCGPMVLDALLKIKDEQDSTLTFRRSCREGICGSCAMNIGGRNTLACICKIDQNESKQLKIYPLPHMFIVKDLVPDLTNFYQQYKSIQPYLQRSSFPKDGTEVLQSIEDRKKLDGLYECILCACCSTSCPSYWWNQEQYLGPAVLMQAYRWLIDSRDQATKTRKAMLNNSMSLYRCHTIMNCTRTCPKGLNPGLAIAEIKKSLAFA
T1 sequence (P33421 51-198 partner): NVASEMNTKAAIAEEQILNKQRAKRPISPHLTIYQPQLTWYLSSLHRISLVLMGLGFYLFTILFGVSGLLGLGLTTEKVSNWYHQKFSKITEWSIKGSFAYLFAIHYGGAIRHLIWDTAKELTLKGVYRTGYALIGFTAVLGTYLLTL
T1 sequence (P37298 32-181 partner): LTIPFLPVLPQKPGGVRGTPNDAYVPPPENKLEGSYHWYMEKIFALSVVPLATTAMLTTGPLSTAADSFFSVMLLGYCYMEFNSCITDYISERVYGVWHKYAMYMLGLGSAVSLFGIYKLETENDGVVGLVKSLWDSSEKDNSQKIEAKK
Protocol: (A) 160 μM insulin was reacted with 3 units of PDI in the presence of buffer, 1 mM bacitracin, or MitoBloCK-6 (MB-6). Reduction of insulin chains was initiated by the addition of DTT. The samples were incubated for 30 min at room temperature and then the turbidity was measured at a wavelength of 630 nm using a Bio-Tek plate-reader. (B) Succinate dehydrogenase activity was measured in WT mitochondria using a Clark-type oxygen electrode. Respiration was initiated with 10 mM succinate and, when steady-state respiration was established, 25 or 50 μM MitoBloCK-6, 50 μM ES-1, 50 μM ES-2, or 1% DMSO was added. Controls included 20 mM malonate that inhibits succinate dehydrogenase activity and CCCP that uncouples electron transport. The rate is reported as nmol O2 consumed/sec.
Oxygen consumption of WT mitochondria was measured using methods previously described (Claypool et al., 2008a). Briefly, purified WT mitochondria (25 mg/ml) were thawed on ice and tested within 2 hours. […] Consumption rate was monitored for approximately 2 min. MitoBloCK-6 or DMSO was then added to a final vehicle concentration of 1% and respiration was measured for another approximately 1.5 min. […] Consumption rate was monitored for approximately 3 mins. MitoBloCK-6, SAR compounds, or DMSO was then added and respiration measured for another 3 mins. […]

[1] = tested on: tim10-1 tim9S mitochondria; assay: Respiration (oxygen electrode) of tim10-1 tim9S mitochondria; type: biochemical, yeast; settings: NADH; 25 μM MitoBloCK-1; CCCP as control
Protocol: Oxygen consumption of […] mitochondria was measured using methods previously described (8). Briefly, purified […] mitochondria aliquots (25 mg/mL) were thawed on ice and tested within 2 hours. A Clark-type oxygen electrode in a stirred, thermostatically controlled 1.5-ml chamber at 25° C. (Oxytherm; Hansatech) facilitated measurement. […] Consumption rate was monitored for approximately 2 min.

HeLa cells [2] = assay: Mitochondrial morphology in HeLa cells; type: cell-based; settings: 50 μM 12-16 h, up to 100 μM, 20 μM CCCP control
Protocol: (A) HeLa cells were transiently transfected with Su9-EGFP. Following transfection, cells were treated for 12 hr with 50 μM MitoBloCK-6 or control 1% DMSO. As a positive control, cells were incubated with 20 μM CCCP to dissipate the membrane potential. Mitochondria were also stained with 10 μM MitoTracker Red. Mitochondrial morphology was assessed by fluorescence microscopy and the Mitotracker Red and GFP channels were superimposed (Merge). (B) The effect of MitoBloCK-6 on the viability of HeLa cells was assessed with a MTT-based toxicology assay. Cultured cells were treated for 12-16 hr with DMSO or 50 μM and 100 μM MitoBloCK-6. Bars display mean cell viability where 100% was defined as signal from untreated samples. Error bars display standard error of the mean (n=5). (C) The release of cyt c was investigated. Cells were treated with 1% DMSO or 50 μM MitoBloCK-6 for 12-16 hr and fractionated into mitochondrial (M) and cytosolic (C) fractions. Release of mitochondrial proteins was assessed by immunoblot analysis with antibodies against cyt c, Complex V (ATP synthase subunit alpha), pyruvate dehydrogenase (PDH), and cytosolic GAPDH. Treatment with 1 μM staurosporine for 4 hr induced apoptosis and was included as a positive control.
For microscopy experiments, HeLa or HEK293 cells were transiently transfected with Su9-EGFP (Lipofectamine, Invitrogen) at 80% confluency. […]

[3] = tested on: tim10-1 tim9S mitochondria; assay: Membrane potential with rhodamine 123; type: biochemical, yeast; settings: 25 μM MitoBloCK-1; CCCP as control
Protocol: Membrane potential measurement assays were conducted with a SPEX spectrofluorometer system (HORIBA Jobin Yvon) with a magnetically stirred cuvette held at 25° C. The quenching of rhodamine 123 fluorescence (Em, =530 nm and Ex=485 nm) was used as previously described (9) to detect changes in mitochondrial membrane potential. Purified tim10-1 tim9S mitochondrial aliquots were thawed and resuspended in respiration buffer (0.65 M mannitol, 0.3 mM EGTA, 3 mm tris-phosphate, 10 mM tris-maleate, pH 6.75). Trials were started by adding 100 nM of rhodamine 123 to respiration buffer. After a period of signal stabilization, mitochondria were added to a concentration of 100 μg/mL. Either drug or DMSO was then added to a final vehicle concentration of 1% following the establishment of baseline quenched fluorescence. Finally, mitochondria were uncoupled with 3 μM CCCP.

WT mitochondria = assay: Respiration of WT mitochondria with NADH (oxygen electrode); type: biochemical, yeast; settings: 25 μM MitoBloCK-6; CCCP control
Protocol: Oxygen consumption of WT mitochondria was measured using methods previously described (Claypool et al., 2008a). Briefly, purified WT mitochondria (25 mg/ml) were thawed on ice and tested within 2 hours. Oxygen consumption assays were performed with a Clark-type oxygen electrode in a stirred thermostatically controlled 1.5-ml chamber at 25° C. (Oxytherm, Hansatech). […] Consumption rate was monitored for approximately 2 min. […] Consumption rate was monitored for approximately 3 mins. MitoBloCK-6, SAR compounds, or DMSO was then added and respiration measured for another 3 mins. Uncoupled respiration was achieved as described above.

Erv1 = target: T2, Erv1 (Saccharomyces cerevisiae, UniProt P27882); assay: In vitro Erv1 oxidase activity, Amplex Red-HRP assay; type: biochemical, yeast; settings: 100 μM
T2 construct: made in house
T2 sequence (P27882 1-189): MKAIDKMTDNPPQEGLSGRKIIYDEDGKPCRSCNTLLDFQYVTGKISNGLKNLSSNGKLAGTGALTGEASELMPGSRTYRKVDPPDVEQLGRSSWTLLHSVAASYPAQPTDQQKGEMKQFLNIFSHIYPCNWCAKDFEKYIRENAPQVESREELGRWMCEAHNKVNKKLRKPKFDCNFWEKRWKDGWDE
Protocol: The primary chemical screen used fresh recombinant Erv1 (in buffer 30 mM Hepes, pH 7.4, 100 mM NaCl, 1 mM EDTA) at a concentration of 10 μM, which was expressed as described previously. […] A Biomek FX (Beckman Coulter) was used to pin transfer 0.5 μl of compound from 1 mM stock or DMSO to respective wells. Approximate screening
concentration was 12.5 μM. After completed compound transfer, all plates were incubated at 25° C. in a humidified incubator for 1 hour. A Titertek multidrop was used to dispense 15 μl of Amplex Red-horseradish peroxidase (HRP) (Sigma) mix into all wells of the 384-well plate. The final concentration of Amplex Red and HRP were 46 μM and 0.092 U/ml, respectively. The Amplex Red-HRP solution was shielded from light during the entire experiment. The plates were incubated for an additional 10 min and then 15 μl of the substrate DTT (20 μM) was added to initiate the reduction of 02 to H2O2. […] Plates were then read at an endpoint using an excitation wavelength of 545 nm and an emission wavelength of 590 nm. […]
H2O2 production was measured using a standard fluorometric assay with Amplex Red and horseradish peroxidase (HRP). […] Fluorescence intensity was measured and reactions that were inhibited by more than 50% were picked as potential Erv1 inhibitors and selected for secondary analysis.

[4] = tested on: tim10-1 tim9S mitochondria; assay: In vitro import of radiolabeled precursors into tim10-1 tim9S mitochondria; type: biochemical, yeast; settings: SAR study
Protocol: Prior to import into purified mitochondria, ^35S-methionine and cysteine labeled proteins were generated with TNT Quick Coupled Transcription/Translation kits (Promega) and plasmids carrying the gene of interest. Transcription of genes was driven by either a T7 or SP6 promoter. Import reactions were conducted according to established methods. After frozen mitochondria aliquots were thawed and added to the import buffer at a final concentration of 100 μg/mL, drug or DMSO vehicle was added as indicated. A final vehicle concentration of 1% was used in all experiments. Following 15 minute incubation at 25° C., import reactions were initiated by the addition of […] of translation mix. Aliquots were removed at intervals during the reaction timecourse and import was terminated with either cold buffer, 25 μg/mL trypsin, or a combination of both. If trypsin was added to digest unimported precursor protein, soybean trypsin inhibitor (STI) was subsequently added in excess after 15 minute incubation on ice. After a final recovery of by centrifugation (8,000×g, 5 minutes), mitochondria were disrupted in Laemmli sample buffer. Imports of membrane proteins (AAC, PiC, Tom40, Tim22, and Tim23) included a carbonate extraction step to remove proteins that had not inserted into the membrane (Koehler C M, et al. (1998), Science 279:369-373). Samples from import reaction time points were resolved by SDS polyacrylamide gel electrophoresis (SDSPAGE) and gels were dried prior to exposing to film.

HeLa cells [5] = assay: Cyt c release assay by cell fractionation in HeLa cells; type: cell-based; settings: 50 μM MitoBloCK-6 12-16 h, 1 μM staurosporine 4 h
Protocol: For cyt c release assays, a cell fractionation kit (MitoSciences) was used. Briefly, HeLa or HEK293 cells were grown in 10 cm^2 dishes to 80% confluency and then cells were treated with DMSO or MitoBloCK-6 in complete medium for 12-16 h. […] Cells were fractionated to obtain cytosolic and mitochondrial fractions; 100 μg of each fraction was analyzed by SDS-PAGE. Blots were probed with ApoTrack cyt c apoptosis antibody cocktail (MitoSciences).

zebrafish embryos = assay: Zebrafish embryo development; type: in vivo
Protocol: Zebrafish used for o-dianisidine staining of red blood cells in DMSO and MitoBloCK-6 treated fish were albino lines generated from crosses of TL and TU fish. Line AB were injected with the ALR morpholino. Lines were maintained in a 14-hr light/10-hr dark cycle and mated for one hour to obtain synchronized embryonic development. […] Following treatment, embryos were imaged using a Leica MZ16F fluorescent stereoscope (TexasRed filter set) at 5× magnification. […] Embryos were allowed to mature to 2 dpf and then imaged like the MitoBloCK-6 treated embryos; embryos were imaged at day 2 because of concerns with morpholino dilution. Images were resized to 300 dpi without resampling using Adobe Photoshop software.

In the case of `O=C(O)CC(=O)O` [malonate], the “succinate dehydrogenase activity (oxygen consumption rate with succinate)” value (succinate dehydrogenase) is reported as “disrupted”.
`N#CC(C#N)=NNc1cccc(Cl)c1` [CCCP, carbonyl cyanide m-chlorophenylhydrazone, reference compound] was tested, and the rate of respiration [1] was “respiration increased drastically”, the “mitochondrial network / morphology” value (HeLa cells [2]) was “caused the mitochondrial network to collapse around the nucleus” and the “rhodamine 123 fluorescence (membrane potential)” value [3] was “sharp increase in fluorescence”. For the same molecule, the “oxygen consumption rate (NADH respiration)” value (WT mitochondria) was “respiration increased drastically”.
In the case of `O=Cc1cc(Cl)cc(Cl)c1O` [3,5-dichlorosalicylaldehyde, reference compound], the Erv1 activity (Erv1) is reported as “did not inhibit Erv1 activity”.
`Cc1ccc2c(c1)C1CCC/C(=N\NC(N)=S)C1N2C` (stereo not shown) [Analog B] was tested, and the “inhibition of import of AAC by analogs” value [4] was “Analog D was the only compound to inhibit import of AAC”.
For `CN[C@@H]1C[C@H]2O[C@@](C)([C@@H]1OC)n1c3ccccc3c3c4c(c5c6ccccc6n2c5c31)C(=O)NC4` [staurosporine], the cyt c release (HeLa cells [5]) was “showed cyt c release”.
With “ALR morpholino: ATG morpholino targeted to zebrafish ALR protein (GAGGGTTGCCAGATCTCTGTTAAAT) (all phosphorodiamidate morpholino (PMO)) [reference compound]” the “phenotypes of morpholino-injected embryos” value (zebrafish embryos; 4 ng injected in 1-cell embryos) was “identical to that of MitoBlock-6 exposure” and the decreased heart rate (zebrafish embryos; embryos treated with MitoBloCK-6 or ALR morpholino) was 25%.
